Test results taken from patent publication US4210639A, “5'-Deoxy-5'-(isobutylthio)-3-deazaadenosine, method of making same and its antiviral effect on Rous sarcoma virus and Gross murine leukemia virus” (The United States of America as represented by the …, priority 1978, dated 1980).
Entries after “also recorded” stand apart in the source; their conditions may differ. Like-named read-outs stand apart in the source and are kept apart here.

Experiments:
RSV-BH = assay: Focus formation (oncogenic transformation) by RSV-BH in chick embryo cells; format: cell-based; settings: for inhibition at 100 µM / inhibition at 30 µM: Gallus gallus
Protocol: Additionally, the ability of these compounds to inhibit the oncogenic transformation of chick embryo cells induced by RSV-BH was examined.
*Compounds were added 18 h after infection and foci were counted 7 days

oncogenic virus = assay: Oncogenic virus-induced malignant transformation / viral replication, general statements; format: cell-based
chick embryo cells = assay: Effects on host chick embryo cells; format: cell-based; settings: 0.1 mM
AdoHcy hydrolase [1] = target: T1, AdoHcy hydrolase (Bos taurus, UniProt Q3MHL4); assay: Inhibition of AdoHcy hydrolase from cow liver; format: biochemical; settings: for IC50: read-out: I50
T1 construct: AdoHcy hydrolase from cow liver; from tissue; host or cells: cow liver
T1 sequence (Q3MHL4 2-432 limits assumed): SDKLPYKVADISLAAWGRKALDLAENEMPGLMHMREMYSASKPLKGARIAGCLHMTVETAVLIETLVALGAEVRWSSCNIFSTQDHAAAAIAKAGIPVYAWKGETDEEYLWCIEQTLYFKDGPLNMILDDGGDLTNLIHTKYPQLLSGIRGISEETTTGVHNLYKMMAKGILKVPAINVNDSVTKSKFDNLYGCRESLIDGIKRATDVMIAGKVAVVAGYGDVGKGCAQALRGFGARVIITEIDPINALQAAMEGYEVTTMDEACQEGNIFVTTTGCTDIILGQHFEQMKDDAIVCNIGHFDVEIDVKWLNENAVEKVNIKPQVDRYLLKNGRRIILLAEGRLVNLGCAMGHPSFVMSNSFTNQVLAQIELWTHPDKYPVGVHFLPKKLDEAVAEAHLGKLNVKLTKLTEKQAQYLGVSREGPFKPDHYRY

mouse embryo cells = assay: Multiplication/cytotoxicity of mouse embryo host cells after 4 days exposure; format: cell-based, Swiss mouse; settings: 30 to 100 μM
Protocol: (§1) Each point represents the mean number of UV-XC plaques per culture (triplicate assays)± the standarad deviation. The drug was dissolved in DMSO at the time of virus inoculation and was present throughout the incubation period. (B) Effect of treatment on the multiplication of host cells after 4 days exposure to drug. Each point represents the mean number of viable mouse embryo cells per culture ± the standard deviation. The initial number of cells plated was 3.5×10^5 cells.
(§2) The ability of 5'-deoxy-5'-(isobutylthio)-3-deazaadenosine to inhibit replication of Gross MLV in mouse embryo cells was tested. […] The selectivity ratio (i.e., the highest noncytotoxic concentration of drug over the lowest effective concentration of drug) was about 10.

AdoHcy hydrolase [2] = assay: Hydrolysis of the compound by AdoHcy hydrolase; format: biochemical
Gross MLV = assay: Replication of Gross MLV in mouse embryo cells (UV-XC plaque assay); format: cell-based, Swiss mouse
Protocol: as §1, §2

cells = assay: Tolerance by cells; format: cell-based
methyltransferases = settings: AdoMet-utilizing methyltransferases; cited from earlier work
[3] = 0.03 mM, added 18 h after infection, counted 7 days later
[4] = 0.1 mM, added 18 h after infection, counted 7 days later
[5] = 168 h, read-out: Reduction of focus formation in RSV-BH infected cells
[6] = 0.1 mM, added 18 h after infection, counted 7 days later, read-out: % Inhibition of focus formation
[7] = AdoHcy hydrolase from cow liver
[8] = non-competitive inhibition of AdoHcy hydrolase

Q: Which results are given for `Nc1nccc2c1ncn2[C@@H]1O[C@H](CO)[C@@H](O)[C@H]1O` [3-Deazaadenosine, 4-amino-1-β-D-ribofuranosyl [4,5-c]pyridine]?
A: Effect on oncogenic transformation induced by Rous sarcoma virus and on its infectivity (RSV-BH): powerful, although reversible, effect; Sensitivity to drug by phase of virus replication (RSV-BH): maximal during the phase of virus replication which required the synthesis of viral mRNA and protein; No. of Foci (RSV-BH; [3]): 106; No. of Foci (RSV-BH; [4]): 17; inhibition at 100 µM (RSV-BH; [5]): 95%; inhibition at 30 µM (RSV-BH; [3]): 68%; inhibition at 100 µM (RSV-BH; [6]): 95%; Ability to inhibit viral replication, compared between the two compounds (oncogenic virus): almost equal; Effects on the host cells (chick embryo cells): without noticeable effects on the host cells; Inhibition of AdoHcy hydrolase (in words) (AdoHcy hydrolase [1]): most potent inhibitor of AdoHcy hydrolase; Type of inhibition of AdoHcy hydrolase (AdoHcy hydrolase [1]): competitive inhibitor; IC50 (AdoHcy hydrolase [1]; AdoHcy hydrolase): 8 µM; Ki (AdoHcy hydrolase [1]; competitive inhibition of AdoHcy hydrolase): 3 µM; Potency relative to 5'-deoxy-5'-S-isobutyl-adenosine as inhibitor of AdoHcy hydrolase (AdoHcy hydrolase [1]; nearly 100-fold more potent than 5'-deoxy-5'-S-isobutyl-adenosine): ~100 fold

Q: Which results are given for `Nc1nccc2c1ncn2[C@@H]1O[C@H](CSCC[C@H](N)C(=O)O)[C@@H](O)[C@H]1O` [3-Deazaadenosylhomocysteine]?
A: Effect on focus formation / RSV activity (in words) (RSV-BH): Neither 3-deaza-AdoHcy nor 9-[5'-deoxy-5'-(methylthio)- β-D-arabinofuranosyl]adenine had any significant effect on focus formation; No. of Foci (RSV-BH; [3]): 330; No. of Foci (RSV-BH; [4]): 276; inhibition at 30 µM (RSV-BH; [3]): 0%; inhibition at 100 µM (RSV-BH; [6]): 16%

Q: Which “Effect on focus formation / RSV activity (in words)” value (RSV-BH) does the source give for `CC(C)CSC[C@H]1O[C@@H](n2cnc3c(N)nccc32)[C@H](O)[C@@H]1O` [5'-Deoxy-5'-(isobutylthio)-3-deazaadenosine] here?
A: good antiviral; also recorded: just as effective as 3-deazaadenosine itself; also recorded: has shown activity

Q: And the “No. of Foci” value (RSV-BH; [3])?
A: 93

Q: What about the “No. of Foci” value (RSV-BH; [4]) of the same compound?
A: 3

Q: What about the inhibition at 100 µM (RSV-BH; [5]) of the same compound?
A: 95%

Q: And the inhibition at 30 µM (RSV-BH; [3])?
A: 72%

Q: What about the inhibition at 100 µM (RSV-BH; [6]) of the same compound?
A: 99%

Q: What about the “Ability to inhibit viral replication, compared between the two compounds” value (oncogenic virus) of the same compound?
A: almost equal

Q: And the “Reversal of malignant transformation induced by oncogenic virus” value (oncogenic virus)?
A: will reverse the malignant transformation

Q: And the Cytotoxicity (mouse embryo cells)?
A: cytotoxicity was observed

Q: What about the “Hydrolysis by AdoHcy hydrolase” value (AdoHcy hydrolase [2]) of the same compound?
A: not to be hydrolyzed

Q: What about the “Effects on the host cells” value (chick embryo cells) of the same compound?
A: without noticeable effects on the host cells

Q: And the “Inhibition of AdoHcy hydrolase (in words)” value (AdoHcy hydrolase [1])?
A: potent inhibitors of AdoHcy hydrolase; also recorded: good activity

Q: And the “Type of inhibition of AdoHcy hydrolase” value (AdoHcy hydrolase [1])?
A: non-competitive inhibitor

Q: And the IC50 (AdoHcy hydrolase [1]; [7])?
A: 280 µM

Q: What about the “Type of inhibition of AdoHcy hydrolase” value (AdoHcy hydrolase [1]; listed as 5'-deoxy-(isobutylthio)-3-deazaadenosine) of the same compound?
A: non-competitive

Q: And the “Ki relative to the Ki of 3-deazaadenosine” value (AdoHcy hydrolase [1]; times higher than Ki of 3-deazaadenosine)?
A: about 100 times

Q: And the inhibition at 3 µM (Gross MLV; 3 μM, Gross MLV in mouse embryo cells, read-out: Inhibition of plaque formation in the indicator XC cells)?
A: 85%

Q: What about the “Inhibition of virus replication (in words)” value (Gross MLV; 30 to 100 μM, Gross MLV in mouse embryo cells) of the same compound?
A: Complete inhibition

Q: What about the “Selectivity ratio (highest noncytotoxic concentration over lowest effective concentration)” value (Gross MLV; Gross MLV in mouse embryo cells) of the same compound?
A: about 10

Q: What about the “Antiviral activity against Gross murine leukemia virus (in words)” value (Gross MLV; mouse embryo cells) of the same compound?
A: good antiviral; also recorded: has shown activity

Q: And the Tolerance by cells (cells)?
A: well tolerated by cells

Q: Which results are given for `CC(C)CSC[C@H]1O[C@@H](n2cnc3c(N)ncnc32)[C@H](O)[C@@H]1O` [5'-deoxy-5'-S-isobutyladenosine]?
A: Inhibition of AdoHcy hydrolase (in words) (AdoHcy hydrolase [1]): potent inhibitors of AdoHcy hydrolase; IC50 (AdoHcy hydrolase [1]; [7]): > 1000 µM; Tolerance by cells (cells): well tolerated by cells

Q: Which “Effect on focus formation / RSV activity (in words)” value (RSV-BH) does the source give for `CSC[C@H]1O[C@@H](n2cnc3c(N)ncnc32)[C@@H](O)[C@@H]1O` [9-[5'-deoxy-5'-(methylthio)-β-D-arabinofuranosyl]-adenine] here?
A: Neither 3-deaza-AdoHcy nor 9-[5'-deoxy-5'-(methylthio)- β-D-arabinofuranosyl]adenine had any significant effect on focus formation

Q: What about the “No. of Foci” value (RSV-BH; [3]) of the same compound?
A: 274

Q: And the “No. of Foci” value (RSV-BH; [4])?
A: 298

Q: What about the inhibition at 30 µM (RSV-BH; [3]) of the same compound?
A: 17%

Q: What about the inhibition at 100 µM (RSV-BH; [6]) of the same compound?
A: 9%

Q: And the “Type of inhibition of AdoHcy hydrolase” value (AdoHcy hydrolase [1])?
A: non-competitive

Q: What about the IC50 (AdoHcy hydrolase [1]; [7]) of the same compound?
A: 430 µM

Q: What about the Ki (AdoHcy hydrolase [1]; [8]) of the same compound?
A: 500 µM

Q: For `Nc1ncnc2c1ncn2[C@@H]1O[C@H](CSCC[C@H](N)C(=O)O)[C@@H](O)[C@H]1O` [Adenosylhomocysteine, S-adenosyl-L-homocysteine], which Inhibition of methyltransferases (methyltransferases) is on record?
A: inhibit competitively most of the methyltransferases; also recorded: competitive inhibitor

Q: Which results are given for `Nc1ncnc2c1ncn2[C@@H]1O[C@H](CNCCC(N)C(=O)O)[C@@H](O)[C@H]1O` (stereo partly drawn) [Nγ-adenosyl-α,γ-diamino-butyric acid]?
A: Type of inhibition of AdoHcy hydrolase (AdoHcy hydrolase [1]): non-competitive; IC50 (AdoHcy hydrolase [1]; [7]): 140 µM; Ki (AdoHcy hydrolase [1]; [8]): 300 µM
